Laboratory results published in patent US11236086B2, “Substituted pyrrolopyridines as inhibitors of activin receptor-like kinase” (BLUEPRINT MEDICINES CORPORATION, priority 2017, dated 2022).
pIC50: −log10 of the molar value.

Experiments:
human ALK2 R206H = target: T1, human ALK2 R206H (Homo sapiens, UniProt Q04771, R206H); assay: Cell-based ALK2-R206H cell activity assay (Smad1-Ser463/Ser465 phosphorylation by AlphaLISA in HEK293-ALK2-R206H cells); details: phospho-Smad1 AlphaLISA, read-out: Cell Line (Cell Assay, IC50 class)
T1 construct: expressed in transfected cells; host or cells: HEK293 (ATCC CRL1573), lentivirus transduction, blasticidin selection
T1 sequence (Q04771 21-509 R206H): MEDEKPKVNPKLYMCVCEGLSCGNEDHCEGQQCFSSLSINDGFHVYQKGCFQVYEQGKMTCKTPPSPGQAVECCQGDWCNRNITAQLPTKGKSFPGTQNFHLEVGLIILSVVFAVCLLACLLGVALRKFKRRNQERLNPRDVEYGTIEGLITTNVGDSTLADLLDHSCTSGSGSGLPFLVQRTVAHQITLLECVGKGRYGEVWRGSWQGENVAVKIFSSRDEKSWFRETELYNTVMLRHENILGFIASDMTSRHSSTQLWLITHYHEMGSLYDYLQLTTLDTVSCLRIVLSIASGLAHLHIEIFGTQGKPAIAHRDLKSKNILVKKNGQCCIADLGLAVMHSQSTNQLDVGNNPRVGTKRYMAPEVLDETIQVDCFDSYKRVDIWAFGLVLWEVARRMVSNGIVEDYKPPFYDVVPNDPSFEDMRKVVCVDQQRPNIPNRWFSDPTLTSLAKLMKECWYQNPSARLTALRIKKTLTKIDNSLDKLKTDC
In short: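 HEK293 stable line expressing human ALK2 R206H with C-terminal FLAG, plated overnight in serum-free medium. Cells were treated 2-3 h with compound over 10 3-fold doses, top 10 μM or 1 μM, in duplicate. Phospho-Smad1 Ser463/465 in lysate was read by AlphaLISA; IC50 was normalised to DMSO (0%) and 1 μM LDN193189 (100%).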

[1] = target: T2, ALK2R206H (mutant ALK2, N-terminally tagged with GST) (Homo sapiens, UniProt Q04771, R206H); assay: ALK binding assay (LANTHASCREEN TR-FRET competitive binding, displacement of Kinase Tracer 178); details: read-out: Binding Assay (IC50 class)
T2 construct: purchased Carna Bioscience or ThermoFisher 09-148 or PV6232
T2 sequence (Q04771 21-509 R206H): T1 sequence (Q04771 21-509 R206H)
In short: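 GST-tagged ALK2 R206H (2-5 nM) mixed with Eu-anti-GST antibody (4-10 nM), Kinase Tracer 178 (50 nM, near its Kd) and compound titration (1% DMSO) in Kinase Buffer A, 30 min at room temperature. Tracer displacement read as TR-FRET ratio, normalized to controls; IC50 from 4-parameter fit.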

Cn1cc(-c2[nH]c3nccc(N4CCN(C(=O)OC5COC5)CC4)c3c2Cl)cn1 [Compound 276]
pIC50 (human ALK2 R206H): ≥ 7.00
pIC50 [1]: ≥ 8.00

CCN1CCN(c2ccc(-c3cc4c(N5CCN(C(=O)C6CC6)CC5)ccnc4[nH]3)c(OC(F)F)c2)CC1 [Compound 475]
pIC50 (human ALK2 R206H): ≥ 7.00
pIC50 [1]: ≥ 8.00

Cn1cc(-c2cc3c(N4CCN(C(=O)C5CC(F)C5)CC4)ccnc3[nH]2)cn1 (stereo not drawn) [Compound 93]
pIC50 (human ALK2 R206H): ≥ 7.00
pIC50 [1]: ≥ 8.00

CC(C)(C#N)n1cc(-c2cc3c(N4CCN(C(=O)OC5COC5)CC4)ccnc3[nH]2)cn1 [Compound 351]
pIC50 (human ALK2 R206H): 6.30 to 7.00
pIC50 [1]: ≥ 8.00

O=C(C1CC1)N1CCN(c2ccnc3[nH]c(-c4ccc(OC5CCC5)cc4)cc23)CC1 [Compound 273]
pIC50 (human ALK2 R206H): 6.30 to 7.00
pIC50 [1]: ≥ 8.00

Cn1ncc(-c2[nH]c3nccc(N4CCN(C(=O)OC5COC5)CC4)c3c2C#N)n1 [Compound 215]
pIC50 (human ALK2 R206H): 6.30 to 7.00
pIC50 [1]: ≥ 8.00

O=C(C1CC1)N1CCN(c2ccnc3[nH]c(-c4ccc(F)cc4)cc23)CC1 [Compound 19]
pIC50 (human ALK2 R206H): 6.30 to 7.00
pIC50 [1]: ≥ 8.00

Cc1csc(-c2cc3c(N4CCN(C(=O)OC5COC5)CC4)ccnc3[nH]2)c1 [Compound 167]
pIC50 (human ALK2 R206H): ≥ 7.00
pIC50 [1]: ≥ 8.00

Cn1cc(-c2cc3c(N4CCN(C(=O)O[C@H]5CCOC5)CC4)ccnc3[nH]2)cn1 [Compound 150]
pIC50 (human ALK2 R206H): 6.30 to 7.00
pIC50 [1]: ≥ 8.00

Cn1cc(-c2cc3c(N4CCN(C(=O)OC5COC5)CC4)ccnc3[nH]2)c(F)n1 [Compound 179]
pIC50 (human ALK2 R206H): 6.30 to 7.00
pIC50 [1]: ≥ 8.00

O=C(OCC(F)F)N1CCN(c2ccnc3[nH]c(-c4nc5c(s4)COCC5)c(Cl)c23)CC1 [Compound 449]
pIC50 (human ALK2 R206H): ≥ 7.00
pIC50 [1]: ≥ 8.00

CCc1ccc(-c2cc3c(N4CCN(C(=O)C5CC5)CC4)ccnc3[nH]2)cc1 [Compound 52]
pIC50 (human ALK2 R206H): 6.30 to 7.00
pIC50 [1]: 7.30 to 8.00

COCCOc1ccc(-c2cc3c(N4CCN(C(=O)C5CC5)CC4)ccnc3[nH]2)cc1 [Compound 286]
pIC50 (human ALK2 R206H): 6.30 to 7.00
pIC50 [1]: ≥ 8.00

Cc1nc(-c2cc3c(N4CCN(C(=O)OC5CS(=O)(=O)C5)CC4)ccnc3[nH]2)cs1 [Compound 387]
pIC50 (human ALK2 R206H): ≥ 7.00
pIC50 [1]: ≥ 8.00

CCCC(C)C(=O)N1CCN(c2ccnc3[nH]c(-c4cnn(C)c4)cc23)CC1 (stereo not drawn) [Compound 82]
pIC50 (human ALK2 R206H): < 6.30
pIC50 [1]: ≥ 8.00

Cn1cc(-c2cc3c(N4CCN(C(=O)O[C@H]5CCC5(F)F)CC4)ccnc3[nH]2)cn1 [Compound 268]
pIC50 (human ALK2 R206H): ≥ 7.00
pIC50 [1]: ≥ 8.00

CN1CCN(c2ccc(-c3cc4c(N5CCN(C(=O)C6CC6)CC5)ccnc4[nH]3)cn2)CC1 [Compound 382]
pIC50 (human ALK2 R206H): ≥ 7.00
pIC50 [1]: ≥ 8.00

O=C(C1CC1)N1CCN(c2ccnc3[nH]c(-c4ccc(N5CCOCC5)cc4)cc23)CC1 [Compound 335]
pIC50 (human ALK2 R206H): ≥ 7.00
pIC50 [1]: ≥ 8.00

Cc1nc(-c2cc3c(N4CCN(C(=O)O[C@@H]5CCC5(F)F)CC4)ccnc3[nH]2)cn1C [Compound 326]
pIC50 (human ALK2 R206H): ≥ 7.00
pIC50 [1]: ≥ 8.00

CCOC(=O)N1CCN(c2ccnc3[nH]c(-c4cnn(C)c4)c(C#N)c23)CC1 [Compound 68]
pIC50 (human ALK2 R206H): ≥ 7.00
pIC50 [1]: ≥ 8.00

Cc1nc(-c2cc3c(N4CCN(C(=O)OCC(F)F)CC4)ccnc3[nH]2)cn1C [Compound 190]
pIC50 (human ALK2 R206H): ≥ 7.00
pIC50 [1]: ≥ 8.00

O=C(C1CC1)N1CCN(c2ccnc3[nH]c(-c4ccc(N5CCN6CCOCC6C5)cc4)cc23)CC1 (stereo not drawn) [Compound 453]
pIC50 (human ALK2 R206H): ≥ 7.00
pIC50 [1]: ≥ 8.00

O=C(C1CC1)N1CCN(c2ccnc3[nH]c(-c4ccc(C5(O)CCCC5)cc4)cc23)CC1 [Compound 329]
pIC50 (human ALK2 R206H): ≥ 7.00
pIC50 [1]: ≥ 8.00

Cc1c(-c2cnn(C)c2)[nH]c2nccc(N3CCN(C(=O)OC4CCC4)CC3)c12 [Compound 140]
pIC50 (human ALK2 R206H): ≥ 7.00
pIC50 [1]: ≥ 8.00

COC1(c2ccc(-c3cc4c(N5CCN(C(=O)OC6COC6)CC5)ccnc4[nH]3)c(C#N)c2)CCOCC1 [Compound 472]
pIC50 (human ALK2 R206H): ≥ 7.00
pIC50 [1]: ≥ 8.00

Cc1nc(-c2[nH]c3nccc(N4CCN(C(=O)OC5COC5)CC4)c3c2Cl)cs1 [Compound 344]
pIC50 (human ALK2 R206H): ≥ 7.00
pIC50 [1]: ≥ 8.00

Cn1cnc(-c2[nH]c3nccc(N4CCN(C(=O)OC5CCC5)CC4)c3c2C#N)c1 [Compound 199]
pIC50 (human ALK2 R206H): ≥ 7.00
pIC50 [1]: ≥ 8.00
